Measured values reported in US9029410B2, “Pharmaceutical compositions for the treatment of movement disorders” (Sarah Herzog Memorial Hospital Ezrath Nashim Association, priority 2003, dated 2015).
Read-outs that look alike come from different tables or passages of the source.

What was measured:
patients [1] = conditions: Tsai and Coyle '875; low baseline levels; cited from earlier work
schizophrenia patients [2] = test: SAS, crossover trials of D-cycloserine (pooled); type: in vivo, human
Description: (§1) Patients fulfilled criteria for treatment resistance used in previous trials of glycine and had been receiving stable doses of olanzapine or risperidone for at least 3 months before study entry. Medication doses remained fixed throughout the study.
(§2) Methods for this study are the same as in example 1, except that D-cycloserine (50 mg/d) was used for treatment. As previously, outcome was assessed using the PANSS, SAS and AIMS. In addition, the Schedule for Assessment of Negative Symptoms (SANS) was used to provide further assessment of negative symptoms. Data are pooled from two previously published studies (Heresco-Levy et al., 1998, 2002). Because analyses were confirmatory, one-tailed statistics were used throughout.

schizophrenia patients [3] = test: PANSS, crossover trials of D-cycloserine (pooled); type: in vivo, human; conditions: mean ± sd
Description: as §1, §2

MPTP-treated monkeys [4] = conditions: cited from earlier work
schizophrenia patients [5] = test: AIMS, crossover trials of D-cycloserine (pooled); type: in vivo, human
Description: as §1, §2

MPTP-treated monkeys [6] = conditions: low dose (320 or 1000 mg/kg as printed); cited from earlier work
schizophrenia patients [7] = test: SAS, crossover trial of D-serine; type: in vivo, human
Description: (§3) The study was approved by the appropriate institutional review boards. Seventeen stable inpatients meeting DSM-IV criteria for schizophrenia and free of other axis I diagnoses or significant medical illness were enrolled in the study. Diagnosis was established on the basis of semistructured psychiatric interviews, review of all available medical records, and confirmation by two board-certified psychiatrists. […] Medication doses remained fixed throughout the study.
(§4) After complete description of the study, written informed consent was obtained from all participating patients. The double-blind, placebo-controlled, crossover study consisted of two random-order 6-week treatment arms (glycine 0.8 g/kg/day, or placebo), separated by a 2-week adjuvant treatment washout. Patients were assessed biweekly with the Positive and Negative Syndrome Scale (PANSS), Brief Psychiatric Rating Scale (BPRS), Simpson-Angus Rating Scale (SAS), and Abnormal Involuntary Movement Scale (AIMS) performed by one trained research psychiatrist, as previously described (3). CBC and SMA-20 measures were assessed biweekly throughout the study. Trough glycine and serine serum levels were assessed at baseline and at the end of the two treatment phases. Data were analyzed by repeated measures ANOVA with within group factor of study phase (glycine/placebo) and time within study phase (pre/post), and between group factor of treatment order.
(§5) Methods: Methods for this study are the same as in example 1, except that D-serine ([…]=approx. 2.1 g/day) was used for treatment. As previously, outcome was assessed using the PANSS, SAS and AIMS. In addition, the Schedule for Assessment of Negative Symptoms (SANS) was used to provide further assessment of negative symptoms. This represents an interim analysis of an ongoing study. Data were analyzed by between-treatment t-test of change scores during D-serine or placebo treatment. Data are analyzed only from subjects (n=23) who completed both study phases.

schizophrenia patients [8] = test: PANSS, crossover trial of D-serine; type: in vivo, human; parameters: PANSS Positive Symptoms, treatment week 6: dose or concentration left out as unconfirmed; conditions: mean ± sd
Description: as §3, §4, §5

patients [9] = conditions: D-serine combined with clozapine; Tsai et al., 1999; cited from earlier work
schizophrenia patients [10] = test: AIMS, crossover trial of D-serine; type: in vivo, human
Description: as §3, §4, §5

schizophrenia patients [11] = test: SANS, crossover trial of D-serine; type: in vivo, human
Description: as §3
as §4, with “The double-blind, placebo-controlled, crossover study consisted of two random-order 6-week treatment arms (glycine 0.8 g/kg/day, or placebo), separated by a 2-week adjuvant treatment washout.” left out, “order. […]” for “order.”

[12] = tested on: inpatients with treatment-resistant schizophrenia
Description: as §3, §4

schizophrenia patients [13] = conditions: prior study, Heresco-Levy et al., 1999, Table 3, cited from earlier work
schizophrenia patients [14] = conditions: prior study, Heresco-Levy et al., 1999, Table 3, cited from earlier work; remark: listed apart in the source
[15] = tested on: haloperidol-treated Sprague-Dewley rats
Description: In this model, animals are treated chronically with antipsychotics and their vacuous chewing motions are assessed by observation.
Sprague-Dewley rats (Harlan Laboratories, Jerusalem, Israel) weighing 150 to 170 g. were used. The rats were housed in polycarbonate cages (4 in each cage), maintained under a 12 hour-12 hour dark-light (04.00-16.00 hours) cycle, and were allowed water ad libitum. In order to limit neuroleptic-induced weight gain, the food was restricted to 15 g. pellets per animal per day, as used by Andreassen et al (1996). Rats were weighed biweekly throughout the study. Room temperature was maintained at 22±2° C. All procedures were conducted in accordance with local and international laws for the care and use of laboratory animals.
For two weeks prior to the first drug injection, animals were handled daily and habituated to the animal colony and the procedures related to drug administration and video recording situation. Subsequently (week 0), rats underwent a behavior video recording session following which they were randomized to a haloperidol treatment and a control group. The rats in the treatment group received an intramuscular injection in the thigh muscles with haloperidol decanoate (Pericate, Unipharm Ltd., Tel Aviv, Israel), 100 mg/ml in sesame oil, at a dose of 0.35 mg/kg. The control rats were similarly injected with an equal volume of phosphate buffered saline (PBS). Twenty-three G hypodermic needles were used for all injections. […]
Rats underwent a video recorded behavior assessment session 30-150 minutes following the injection. Two weeks after the test day (i.e., post-test day), the video recorded behavior assessment session was repeated in order to investigate longer-term effects of the experimental treatments. […]
A trained observer, unaware of the treatment received by the rats, scored the behavior while watching the videotapes. […] The statistical significance of interaction of the between group factor and the repeated measures factor is determined in the [sequence] software package using the Rao R statistic and the F distribution. […]

[16] = tested on: inpatients with treatment-resistant schizophrenia; conditions: glycine 0.8 g/kg/day; 2 patients; ceased following discontinuation
Description: Three of the 14 patients who completed the study were women and 11 were men. Their mean age was 46.5 years (SD=9.6), the mean duration of their illness was 25.8 years (SD=11.0) and the mean duration of their current hospitalization was 3.0 years (SD=3.7).

monkeys = conditions: NR2A antagonist; cited from earlier work
Sprague-Dewley rats = test: Effects of chronic haloperidol treatment on motor activity; type: in vivo, rat
Description: Rats were weighed biweekly throughout the study. Room temperature was maintained at 22±2° C.

[17] = tested on: neuroleptic sensitized monkeys; conditions: cited from earlier work
[18] = D-cycloserine 50 mg/d, week 6, mean ± sd, n=26
[19] = D-cycloserine 50 mg/d, week 6 minus week 0, mean ± sd
[20] = D-cycloserine phase, week 0, mean ± sd, n=26
[21] = D-cycloserine 50 mg/d, week 6, n=26
[22] = D-cycloserine 50 mg/d, week 6 minus week 0
[23] = D-cycloserine phase, week 0, n=26
[24] = D-serine phase, week 0, mean ± sd, n=23
[25] = D-serine, week 6, mean ± sd, n=23
[26] = D-serine, week 6 minus week 0, mean ± sd
[27] = during D-serine treatment, 6 weeks
[28] = glycine 0.8 g/kg/day vs placebo, 6 weeks
[29] = glycine 0.8 g/kg/day, week 6, mean, n=14
[30] = glycine phase, baseline, mean, n=14
[31] = mean (sd), reduction over 6 weeks of glycine 0.8 g/kg/day
[32] = mean (sd), reduction over 6 weeks of glycine 0.8 g/kg/day, listed as glycine

## C[C@@H](N)C(=O)O [D-alanine]
Patients [1]
  Changes in SAS or AIMS scores: no significant changes

## N[C@@H]1CONC1=O [D-cycloserine]
Schizophrenia patients [2]; D-cycloserine 50 mg/d vs placebo, t=1.77, one tailed
  Effect on Parkinsonian symptoms (SAS): nearly significant improvement
Schizophrenia patients [2]; [18]
  SAS, week 6 within treatment phase: 3.6 ± 2.1
Schizophrenia patients [2]; [19]
  SAS, Ä symptoms: −0.7 ± 1.7
Schizophrenia patients [2]; [20]
  SAS, week 0 within treatment phase: 4.3 ± 2.4
Schizophrenia patients [3]; [21]
  PANSS General Psychopathaology, week 6 within treatment phase: 53.8 ± 8.2
  PANSS Negative symptoms, week 6 within treatment phase: 31.4 ± 6.5
  PANSS Positive symptoms, week 6 within treatment phase: 24.6 ± 4.1
  PANSS Total Symptoms, week 6 within treatment phase: 109.7 ± 15.8
Schizophrenia patients [3]; [22]
  PANSS General Psychopathaology, Ä symptoms: −4.9 ± 6.2
  PANSS Negative symptoms, Ä symptoms: −3.2 ± 2.5
  PANSS Positive symptoms, Ä symptoms: −2.1 ± 2.6
  PANSS Total Symptoms, Ä symptoms: −10.2 ± 8.9
Schizophrenia patients [3]; [23]
  PANSS General Psychopathaology, week 0 within treatment phase: 58.7 ± 8.4
  PANSS Negative symptoms, week 0 within treatment phase: 34.6 ± 6.2
  PANSS Positive symptoms, week 0 within treatment phase: 26.7 ± 4.5
  PANSS Total Symptoms, week 0 within treatment phase: 120 ± 16.7
MPTP-treated monkeys [4]
  Bradykinesia, tremor or other core Parkinsonian symptoms: did not show improvement
Schizophrenia patients [5]; D-cycloserine 50 mg/d vs placebo, t=2.21, p<0.025, one tailed
  Effect on dyskinetic symptoms (AIMS): significant reduction
Schizophrenia patients [5]; [18]
  AIMS, week 6 within treatment phase: 3.9 ± 3
Schizophrenia patients [5]; [19]
  AIMS, Ä symptoms: −0.8 ± 1.3
Schizophrenia patients [5]; [20]
  AIMS, week 0 within treatment phase: 4.7 ± 3.1
MPTP-treated monkeys [6]
  Variable delayed-response task (VDR) performance: significantly improved

## N[C@H](CO)C(=O)O [D-serine]
Schizophrenia patients [7]; [24]
  SAS, treatment week 0: 4.2 ± 1.4
Schizophrenia patients [7]; [25]
  SAS, treatment week 6: 2.4 ± 0.8
Schizophrenia patients [7]; [26]
  SAS, Δ symptoms: −1.8 ± 1.3
Schizophrenia patients [7]; [27]
  Decline in Parkinsonian symptoms as rated by the SAS: 42%
Schizophrenia patients [8]; D-serine phase, week 0, n=23
  PANSS Cognitive symptoms, treatment week 0: 8.5 ± 2.2
  PANSS Depression, treatment week 0: 5.3 ± 2.6
  PANSS Excitement, treatment week 0: 1.6 ± 1.5
  PANSS Negative symptoms, treatment week 0: 3.9 ± 4.0
  PANSS Positive Symptoms, treatment week 0: 4.2 ± 2.3
Schizophrenia patients [8]; D-serine, week 6, n=23
  PANSS Cognitive symptoms, treatment week 6: 17.1 ± 2.7
  PANSS Depression, treatment week 6: 13.8 ± 2.2
  PANSS Excitement, treatment week 6: 10.9 ± 1.4
  PANSS Negative symptoms, treatment week 6: 21.0 ± 3.5
  PANSS Positive Symptoms, treatment week 6: 13.0 ± 2.3
Schizophrenia patients [8]; D-serine, week 6 minus week 0
  PANSS Cognitive symptoms, Δ symptoms: −1.4 ± 1.3
  PANSS Depression, Δ symptoms: −1.5 ± 1.8
  PANSS Excitement, Δ symptoms: −0.7 ± 1.2
  PANSS Negative symptoms, Δ symptoms: −2.9 ± 1.9
  PANSS Positive Symptoms, Δ symptoms: −1.2 ± 1.1
Patients [9]
  Change in SAS or AIMS scores: did not find significant change
Schizophrenia patients [10]; [24]
  AIMS, treatment week 0: 3.0 ± 0.8
Schizophrenia patients [10]; [25]
  AIMS, treatment week 6: 1.6 ± 1.2
Schizophrenia patients [10]; [26]
  AIMS, Δ symptoms: −1.4 ± 1.1
Schizophrenia patients [10]; [27]
  Decline in dyskinetic symptoms as rated by the AIMS: 50%
Schizophrenia patients [11]; week 6, mean ± sd, n=23
  SANS Total (with globals), treatment week 6: 51.9 ± 8.0
Schizophrenia patients [11]; week 6 minus week 0, mean ± sd
  SANS Total (with globals), Δ symptoms: −9.0 ± 4.3

## NCC(=O)O [Glycine, glycine]
[12]; 6 weeks glycine, vs 0.3 point increase during placebo, p<0.02
  AIMS score decrease during glycine treatment: 1.0 point
[12]; 6 weeks glycine, vs 0.5 point increase during placebo, p<0.05
  SAS score decrease during glycine treatment: 1.3 points
[12]; [28]
  AIMS, Effect size (d): 0.6
  BPRS Total, Effect size (d): 1.6
  PANSS Cognitive Symptoms, Effect size (d): 0.9
  PANSS Depression, Effect size (d): 0.7
  PANSS Excitement, Effect size (d): 0.6
  PANSS Negative Symptoms, Effect size (d): 2.1
  PANSS Positive Symptoms, Effect size (d): 0.7
  SAS, Effect size (d): 0.6
[12]; [29]
  AIMS, Score at Week 6: 2.6
  BPRS Total, Score at Week 6: 36.6
  PANSS Cognitive Symptoms, Score at Week 6: 17.9
  PANSS Depression, Score at Week 6: 13.4
  PANSS Excitement, Score at Week 6: 12.0
  PANSS Negative Symptoms, Score at Week 6: 20.4
  PANSS Positive Symptoms, Score at Week 6: 14.0
  SAS, Score at Week 6: 4.0
[12]; glycine phase, baseline, mean, 14 inpatients on olanzapine or risperidone
  PANSS Negative Symptoms, Score at Baseline: 24.6
[12]; [30]
  AIMS, Score at Baseline: 3.6
  BPRS Total, Score at Baseline: 42.6
  PANSS Cognitive Symptoms, Score at Baseline: 19.1
  PANSS Depression, Score at Baseline: 14.4
  PANSS Excitement, Score at Baseline: 13.2
  PANSS Positive Symptoms, Score at Baseline: 15.4
  SAS, Score at Baseline: 5.3
[12]; [31]
  AIMS, % Change during glycine: 32.2 (30.4) %
  BPRS Total, % Change during glycine: 13.7 (7.5) %
  PANSS Cognitive Symptoms, % Change during glycine: 9.2 (6.8) %
  PANSS Depression, % Change during glycine: 7.4 (17.1) %
  PANSS Excitement, % Change during glycine: 10.6 (20.9) %
  PANSS Negative Symptoms, % Change during glycine: 23.3 (8.4) %
  PANSS Positive Symptoms, % Change during glycine: 11.4 (11.7) %
  SAS, % Change during glycine: 17.9 (40.1) %
[12]; [32]
  AIMS, % Change during glycine: 32.2%
  SAS, % Change during glycine: 18%
Schizophrenia patients [13]
  SAS score before glycine treatment: 1.3 points
Schizophrenia patients [13]; not significant vs placebo
  SAS score after glycine treatment: 0.6 points
Schizophrenia patients [14]
  AIMS score before glycine treatment: 1.9
Schizophrenia patients [14]; not significant vs placebo
  AIMS score after glycine treatment: 1.4
[15]; 2 weeks after acute glycine 1.6 g/kg, p<0.07, VCM returned to pre-treatment levels
  Number of VCM at baseline vs post-test day: did not differ significantly
[15]; glycine 1.6 g/kg intraperitoneal, acute, p<0.01
  VCM frequency, glycine vs placebo group at test day: significantly lower VCM frequency
[15]; glycine 1.6 g/kg intraperitoneal, test day vs baseline, 30-150 minutes after injection, p<0.001
  Reduction in the number of VCM episodes: 82%
[16]
  Adverse effect leading to withdrawal during glycine administration: mild upper gastrointestinal tract discomfort

## N[C@H](CC(=O)CP(=O)(O)O)C(=O)O [MDL 100,453]
monkeys
  Effect on symptoms of dyskinesia: worsening symptoms of dyskinesia

## CNCC(=O)O [N-methylglycine]
Patients [1]
  Changes in SAS or AIMS scores: no significant changes

## CCCCCCCCCC(=O)OC1(c2ccc(Cl)cc2)CCN(CCCC(=O)c2ccc(F)cc2)CC1 [haloperidol, haloperidol decanoate]
Sprague-Dewley rats; haloperidol decanoate i.m. every four weeks, 24 weeks, p<0.001
  Number of VCM episodes relative to rats that had received placebo: approximately 4 fold
Sprague-Dewley rats; haloperidol for 24 weeks, 5 minute observation interval, placebo 53.0±12.7
  Mean time spent in immobility: 103.2 ± 7.8 s
Sprague-Dewley rats; haloperidol for 24 weeks, p<0.0001
  Number of rearing episodes vs placebo: significantly lower
Sprague-Dewley rats; haloperidol for 24 weeks, p<0.17
  Number of grooming episodes vs controls: did not differ

## CNC1(c2ccccc2Cl)CCCCC1=O (stereo not shown) [ketamine]
[17]
  Motor effects of administration: induces bradykinesia, dystonia and salivation
